Values quoted from earlier work as cited in patent US20150239832A1 (Neuro Pro Therapeutics, Inc., priority 2012, published 2015).

Tests used:
[1] = system: rat models of anxiety; conditions: Krystal et al., PLoS ONE 2012
[2] = system: rats; conditions: whole animal studies in rats
[3] = system: primate cortex
[4] = system: NKCC1 over KCC2
[5] = system: patients with medically intractable seizures; conditions: intravenously administered, intraoperative

Row | SMILES | effect on conditioned anxiety [1] | effect on kainic acid status [2] | potency in blocking epileptiform activity (focal bicuculline or 4-AP) and stimulation-evoked afterdischarges [3] | affinity for NKCC1 relative to KCC2 [4] | effect on interictal spiking and stimulation-evoked afterdischarges of the neocortex [5]
1 | CCCCNc1cc(C(=O)O)cc(S(N)(=O)=O)c1Oc1ccccc1 [bumetanide] | significantly reduce conditioned anxiety | more potent than furosemide | more potent than furosemide | significantly greater affinity for NKCC1 over KCC2 | 
2 | NS(=O)(=O)c1cc(C(=O)O)c(NCc2ccco2)cc1Cl [furosemide] | significantly reduce conditioned anxiety |  |  |  | blocked spontaneously occurring interictal spiking and stimulation-evoked afterdischarges
